Test results from patent publication US20250136594A1 (Tango Therapeutics, Inc., priority 2022, published 2025).
Read-outs that look alike come from different tables or passages of the source.

Key:
[1] = tested on: HAP1 MTAP-deleted cell line; experiment: Viability assay, HAP1 MTAP-deleted cell line; assay type: cell-based; details: Homo sapiens
[2] = tested on: SDMA in HAP1 MTAP-intact cell line (PRMT5 inhibition); experiment: SDMA in-cell western assay, HAP1 MTAP-intact cell line; details: Homo sapiens, HAP1, read-out: Hap1 MTAP intact IC50
[3] = tested on: SDMA in HAP1 MTAP-deleted (MTAP-null) cell line (PRMT5 inhibition); experiment: SDMA in-cell western assay, HAP1 MTAP-deleted cell line; details: for IC50 / IC90: Homo sapiens; for IC50: HAP1, read-out: Hap1 MTAP deleted IC50; for IC90: HAP1, read-out: Hap1 MTAP deleted IC90; for Hap1 MTAP intact/deleted ratio: ratio of SDMA IC50 in HAP1 MTAP-intact to HAP1 MTAP-deleted cell line
[4] = viability assay, HAP1 MTAP-deleted cell line, read-out: Hap1 MTAP deleted viability IC50

| SMILES | IC50 [1, 4] [nM] | IC50 [2] [nM] | IC50 [3] [nM] | IC90 [3] [nM] | Hap1 MTAP intact/deleted ratio [3] | IC50 ([1]; HAP1, read-out: Hap1 MTAP deleted viability IC50) [nM] |
| --- | --- | --- | --- | --- | --- | --- |
| CCN(Cc1cccc2ccccc12)C(=O)C(=O)Nc1cnc(N)c2cn[nH]c12 [Compound 176, N-(4-amino-1H-pyrazolo[4,3-c]pyridin-7-yl)-N′-ethyl-N′-(1-naphthylmethyl)oxamide] | 100 to 1000 | > 50 | 5 to 50 | > 125 | A (IC50 ratio greater than or equal to 30 fold) |  |
| Cc1ccccc1CN(C(=O)C(=O)Nc1cnc(N)c2cn[nH]c12)[C@H](C)C(C)C [Compound 177, (R)—N^1-(4-amino-1H-pyrazolo[4,3-c]pyridin-7-yl)-N^2-(2-methylbenzyl)-N^2-(3-methylbutan-2-yl)oxalamide] | < 100 | > 50 | < 5 | < 75 | B (IC50 ratio greater than or equal to 15 fold but lower than 30 fold) |  |
| Cc1ccc(CN(Cc2ccccc2)C(=O)C(=O)Nc2cnc(N)c3cn[nH]c23)nc1 [Compound 179, N-(4-amino-1H-pyrazolo[4,3-c]pyridin-7-yl)-N′-benzyl-N′-[(5-methyl-2-pyridyl)methyl]oxamide] | < 100 | 5 to 50 | < 5 | < 75 | A (IC50 ratio greater than or equal to 30 fold) |  |
| Cc1cccnc1CN(Cc1ccccn1)C(=O)C(=O)Nc1cnc(N)c2cn[nH]c12 [Compound 180, N-(4-amino-2H-pyrazolo[4,3-c]pyridin-7-yl)-N′-[(3-methyl-2-pyridyl)methyl]-N′-(2-pyridylmethyl)oxamide] | < 100 | 5 to 50 | < 5 | < 75 | C (IC50 ratio of less than 15 fold) |  |
| Nc1ncc(NC(=O)C(=O)N(Cc2ccccc2)Cn2cccn2)c2[nH]ncc12 [Compound 181, N-(4-amino-1H-pyrazolo[4,3-c]pyridin-7-yl)-N′-benzyl-N′-(pyrazol-1-ylmethyl)oxamide] | 100 to 1000 | > 50 | < 5 | < 75 | A (IC50 ratio greater than or equal to 30 fold) |  |
| Nc1ncc(NC(=O)C(=O)N(Cc2ccc(C(F)(F)F)cn2)Cc2ccccc2Cl)c2[nH]ncc12 [Compound 182, N-(4-amino-1H-pyrazolo[4,3-c]pyridin-7-yl)-N′-[(2-chlorophenyl)methyl]-N′-[[5-(trifluoromethyl)-2-pyridyl]methyl]oxamide] | < 100 | 5 to 50 | 5 to 50 | < 75 | C (IC50 ratio of less than 15 fold) |  |
| CC(C)c1ccccc1CN(C)C(=O)C(=O)Nc1cnc(N)c2cn[nH]c12 [Compound 183, N-(4-amino-1H-pyrazolo[4,3-c]pyridin-7-yl)-N′-[(2-isopropylphenyl)methyl]-N′-methyl-oxamide] | 100 to 1000 | > 50 | 5 to 50 | > 125 | A (IC50 ratio greater than or equal to 30 fold) |  |
| Cc1ccccc1CN(CC(C)C)C(=O)C(=O)Nc1cnc(N)c2cn[nH]c12 [Compound 185, N-(4-amino-1H-pyrazolo[4,3-c]pyridin-7-yl)-N′-isobutyl-N′-(o-tolylmethyl)oxamide] | < 100 | > 50 | < 5 | < 75 | A (IC50 ratio greater than or equal to 30 fold) |  |
| Cc1cc(Cl)ccc1CN(Cc1ccccc1)C(=O)C(=O)Nc1cnc(N)c2cn[nH]c12 [Compound 186, N-(4-amino-1H-pyrazolo[4,3-c]pyridin-7-yl)-N′-benzyl-N′-[(4-chloro-2-methyl-phenyl)methyl]oxamide] | < 100 | 5 to 50 | < 5 | < 75 | B (IC50 ratio greater than or equal to 15 fold but lower than 30 fold) |  |
| C[C@H](c1ccc(C(F)(F)C(F)(F)F)cc1F)N(C)C(=O)C(=O)Nc1cnc(N)c2cn[nH]c12 [Compound 188, N-(4-Amino-1H-pyrazolo[4,3-c]pyridin-7-yl)-N′-methyl-N′—[(1R)-1-[2-fluoro-4-(1,1,2,2,2-pentafluoroethyl)phenyl]ethyl]oxamide] | < 100 | 5 to 50 | < 5 | < 75 | B (IC50 ratio greater than or equal to 15 fold but lower than 30 fold) |  |
| CCN(Cc1ccc(C(F)(F)C(F)(F)F)cc1F)C(=O)C(=O)Nc1cnc(N)c2cn[nH]c12 [Compound 189, N-(4-Amino-1H-pyrazolo[4,3-c]pyridin-7-yl)-N′-ethyl-N′-[[2-fluoro-4-(1,1,2,2,2-pentafluoroethyl)phenyl]methyl]oxamide] | < 100 | > 50 | < 5 | < 75 | B (IC50 ratio greater than or equal to 15 fold but lower than 30 fold) |  |
| Cc1ccc(CN(Cc2ccccn2)C(=O)C(=O)Nc2cnc(N)c3cn[nH]c23)cc1 [Compound 190, N-(4-amino-1H-pyrazolo[4,3-c]pyridin-7-yl)-N′-(p-tolylmethyl)-N′-(2-pyridylmethyl)oxamide] | < 100 | 5 to 50 | < 5 | < 75 | A (IC50 ratio greater than or equal to 30 fold) |  |
| Cc1cccc(CN(Cc2ccccc2)C(=O)C(=O)Nc2cnc(N)c3cn[nH]c23)n1 [Compound 191, N-(4-amino-1H-pyrazolo[4,3-c]pyridin-7-yl)-N′-benzyl-N′-[(6-methyl-2-pyridyl)methyl]oxamide] | < 100 | 5 to 50 | < 5 | < 75 | A (IC50 ratio greater than or equal to 30 fold) |  |
| CC(c1ccc(C(F)(F)F)cc1)N(C(=O)C(=O)Nc1cnc(N)c2cn[nH]c12)C1CCC1 (stereo not shown) [Compound 192, N-(4-Amino-1H-pyrazolo[4,3-c]pyridin-7-yl)-N′-cyclobutyl-N′-[1-[4-(trifluoromethyl)phenyl]ethyl]oxamide] | < 100 | 5 to 50 | < 5 | < 75 | B (IC50 ratio greater than or equal to 15 fold but lower than 30 fold) |  |
| C[C@H](c1ccc(C(F)(F)F)cc1C(F)(F)F)N(C)C(=O)C(=O)Nc1cnc(N)c2cn[nH]c12 [Compound 193, N-(4-Amino-2H-pyrazolo[4,3-c]pyridin-7-yl)-N′-methyl-N′—[(1R)-1-[2,4-bis (trifluoromethyl)phenyl]ethyl]oxamide] |  | > 50 | < 5 | < 75 |  | < 100 |
| CCN(Cc1ccc(S(F)(F)(F)(F)F)cc1C)C(=O)C(=O)Nc1cnc(N)c2cn[nH]c12 [Compound 194, N-(4-Amino-1H-pyrazolo[4,3-c]pyridin-7-yl)-N′-ethyl-N′-[[2-methyl-4-(pentafluoro-sulfanyl)phenyl]methyl]oxamide] | < 100 | 5 to 50 | < 5 | < 75 | B (IC50 ratio greater than or equal to 15 fold but lower than 30 fold) |  |
